In patent US7229979B2, “Hypoestoxides, derivatives and agonists thereof for use as stent-coating agents” (Immune Modulation, Inc., priority 2003, dated 2007):

Tested on: platelets (arachidonic acid-induced platelet aggregation)
Assay: Arachidonic acid-induced platelet aggregation in platelet-rich plasma
Assay type: cell-based, New Zealand rabbit
Conditions: 30 μM; arachidonic acid 100 μM; rabbit platelet-rich plasma
Procedure: The inhibitory effect of hypoestoxides according to the present invention on platelet aggregation was studied. Platelet-rich plasma from a New Zealand rabbit was used as the source of platelets. Arachidonic acid (100 μM) was used to induce maximal platelet aggregation in vitro. Optical density of aggregation was measured by densitometry.

## C=C1C(=O)C[C@H]2C[C@@H]3O[C@@]3(C)CC[C@@H]3O[C@@]3(C)C[C@@H](OC(C)=O)[C@H]1C2(C)C [Hypoestoxide, hypoestoxide]
  % Inhibition of arachidonic acid-induced platelet aggregation: 100%
